According to patent US20240398805A1, “QUINAZOLINE DERIVED COMPOUNDS AS EGFR INHIBITORS AND THEIR USES THEREOF” (ACCUTAR BIOTECHNOLOGY INC., priority 2021, published 2024):

Key:
Type in all cases: cell-based
HCC827 cells = test: Cell growth inhibition (CellTiter-Glo, 3 days) in HCC827; conditions: Homo sapiens, 72 h, 3 days after administration
Method: (§1) 2. Cell Growth Inhibition for HCC827, HCC827-SVD, HCC827-ASV, HCC827-YVMA and A431.
(§2) HCC827(ATCC), HCC827-SVD, HCC827-ASV, HCC827-YVMA were seeded in 96-well plates at 5000 cells/well in 90 μl of RPMI growth medium containing 10% FBS and 1% Penicillin Streptomycin. A431 (ATCC) cells were seed in 96-well plates at 5000 cells/well in 90 μl of DMEM growth medium containing 10% FBS and 1% Penicillin Streptomycin. Cells were incubated at 3700 overnight. The following day, the test compound was administered to the cells by using 1 Ox compound stock solution prepared in growth medium at various concentrations. After administration of the compound, cells were then incubated at 3700 for 3 days. Before CeIlTiter-Glo assay, the plates were equilibrated at room temperature for approximately 10 minutes. 100 ul of CelTiter-Glo® Reagent (Promega) was added to each well. The plates were then incubated at room temperature for 10 minutes and luminescence was recorded by EnSpire plate reader (PerkinElmer).

[1] = test system: HCC827-SVD cells (human EGFR exon 20 insertion mutant D770_N771 insSVD); test: Cell growth inhibition (CellTiter-Glo, 3 days) in HCC827-SVD; conditions: 72 h, 3 days after administration
Method: (§3) 1. Preparation of HCC827-SVD, HCC827-ASV and HCC827-YVMA Cell Lines
HCC827-SVD cell line were generated by first transducing HCC827 cells (ATCC) with lentiviral particles expressing codon-optimized human EGFR exon 20 insertion mutant D770_N771 insSVD, and then selecting under 5 μg/ml purimycin treatment for a week.
The resulting cells were further transduced with lentiviral particles carrying EGFR sgRNA and CAS9 to knockout the endogenous alleles of EGFR, and then selected under 500 μg/ml hygromycin B treatment for two weeks. Single clone was subsequently generated by limiting dilution approach. Endogenous EGFR knockout was confirmed by Sanger sequencing of cell genomic DNA and expression of exogenous mutant EGFR was verified by Western blot analysis.
as §1, §2

[2] = test system: HCC827-ASV cells (human EGFR exon 20 insertion mutant A769_D770insASV); test: Cell growth inhibition (CellTiter-Glo, 3 days) in HCC827-ASV; conditions: 72 h, 3 days after administration
From the text: as §3
(§4) HCC827-ASV and HCC827-YVMA cell lines were generated in the similar approach as HCC827-SVD except that HCC827 cells (ATCC) were first transduced with lentiviral particles expressing codon-optimized human EGFR exon 20 insertion mutant A769_D770insASV and human ERBB2 exon20 insertion mutant A775_G776ins YVMA, respectively.
as §1, §2

[3] = test system: HCC827-YVMA cells (human ERBB2 exon20 insertion mutant A775_G776ins YVMA); test: Cell growth inhibition (CellTiter-Glo, 3 days) in HCC827-YVMA; conditions: 72 h, 3 days after administration
From the text: as §3, §4, §1, §2

A431 cells = test: Cell growth inhibition (CellTiter-Glo, 3 days) in A431; conditions: Homo sapiens, A-431, 72 h, 3 days after administration
Method: as §1, §2

| GI50 (HCC827 cells) | GI50 [1] | GI50 [2] | GI50 [3] | GI50 (A431 cells) | Compound |
| --- | --- | --- | --- | --- | --- |
| ≥ 1000 nM | ≥ 1000 nM | ≥ 1000 nM | ≥ 1000 nM | ≥ 1000 nM | C=CC(=O)N1CC[C@@H](Oc2cc3c(Nc4ccc(Oc5ccn(-c6cnc(OC)nc6)n5)cc4F)ncnc3cc2OC)C1 [Compound 80, (R)-1-(3-((4-((2-fluoro-4-((1-(2-methoxypyrimidin-5-yl)-1H-pyrazol-3-yl)oxy)phenyl)amino)-7-methoxyquinazolin-6-yl)oxy)pyrrolidin-1-yl) prop-2-en-1-one] |
| ≥ 1000 nM | ≥ 1000 nM | ≥ 1000 nM | ≥ 1000 nM | ≥ 1000 nM | C=CC(=O)N1CC2(CC(Nc3cc4c(Nc5ccc(Oc6ccn(-c7cnc(OC)nc7)n6)cc5F)ncnc4cc3OC)C2)C1 [Compound 84, 1-(6-((4-((2-fluoro-4-((1-(2-methoxypyrimidin-5-yl)-1H-pyrazol-3-yl)oxy)phenyl)amino)-7-methoxyquinazolin-6-yl)amino)-2-azaspiro[3.3]heptan-2-yl)prop-2-en-1-one] |
| 100 to 300 nM | 30 to 60 nM | 60 to 100 nM | 30 to 60 nM | 100 to 300 nM | [2H]C([2H])([2H])Oc1cc2ncnc(Nc3ccc(Oc4nc(-c5ccc(C)nc5)cs4)cc3F)c2cc1NC1CCN(C(=O)C=C)CC1 [Compound 87, 1-(4-((4-((2-fluoro-4-((4-(6-methylpyridin-3-yl)thiazol-2-yl)oxy)phenyl)amino)-7-(methoxy-d3)quinazolin-6-yl)amino)piperidin-1-yl)prop-2-en-1-one] |
| 30 to 60 nM | < 30 nM | < 30 nM | < 30 nM | 300 to 600 nM | C=CC(=O)N1CCC(Nc2cc3c(Nc4ccc(Oc5ccnc(-c6csc(C)n6)c5)cc4F)ncnc3cc2OC)CC1 [Compound 97, 1-(4-((4-((2-fluoro-4-((2-(2-methylthiazol-4-yl)pyridin-4-yl)oxy)phenyl)amino)-7-methoxyquinazolin-6-yl)amino)piperidin-1-yl) prop-2-en-1-one] |
| 100 to 300 nM | 100 to 300 nM | 100 to 300 nM | 100 to 300 nM | 300 to 600 nM | C=CC(=O)N1CCC(Nc2cc3c(Nc4ccc(Oc5ccnc(N6CCCCC6)c5)cc4F)ncnc3cc2OC)CC1 [Compound 100, 1-(4-((4-((2-fluoro-4-((2-(piperidin-1-yl)pyridin-4-yl)oxy)phenyl)amino)-7-methoxyquinazolin-6-yl)amino)piperidin-1-yl)prop-2-en-1-one] |
| 60 to 100 nM | < 30 nM | < 30 nM | < 30 nM | ≥ 1000 nM | C=CC(=O)N1CCC(Nc2cc3c(Nc4ccc(Oc5ccnc(N6C[C@@H](C)O[C@@H](C)C6)c5)cc4F)ncnc3cc2OC)CC1 [Compound 101, 1-(4-((4-((4-((2-((2R,6S)-2,6-dimethylmorpholino)pyridin-4-yl)oxy)-2-fluorophenyl)amino)-7-methoxyquinazolin-6-yl)amino)piperidin-1-yl)prop-2-en-1-one] |
| < 30 nM | < 30 nM | < 30 nM | < 30 nM | 100 to 300 nM | C=CC(=O)N1CCC(Nc2cc3c(Nc4ccc(Oc5ccnc(N6CCC(C(F)(F)F)C6)c5)cc4F)ncnc3cc2OC)CC1 (stereo not drawn) [Compound 150, 1-(4-((4-((2-fluoro-4-((2-(3-(trifluoromethyl)pyrrolidin-1-yl)pyridin-4-yl)oxy)phenyl)amino)-7-methoxyquinazolin-6-yl)amino)piperidin-1-yl)prop-2-en-1-one] |
| 100 to 300 nM | < 30 nM | < 30 nM | < 30 nM | 600 to 1000 nM | C=CC(=O)N1CCC(Nc2cc3c(Nc4ccc(Oc5ccnc(N6CCC(C#N)C6)c5)cc4F)ncnc3cc2OC)CC1 (stereo not drawn) [Compound 151, 1-(4-(4-((6-((1-acryloylpiperidin-4-yl)amino)-7-methoxyquinazolin-4-yl)amino)-3-fluorophenoxy)pyridin-2-yl)pyrrolidine-3-carbonitrile] |
| 300 to 600 nM | < 30 nM | < 30 nM | 30 to 60 nM | ≥ 1000 nM | C=CC(=O)N1CCC(Oc2cc3c(Nc4ccc(Oc5ccnc(N6C[C@H]7COC[C@H]7C6)c5)cc4F)ncnc3cc2OC)CC1 [Compound 165, 1-(4-((4-((2-fluoro-4-((2-((3aR,6aS)-tetrahydro-1H-furo[3,4-c]pyrrol-5(3H)-yl)pyridin-4-yl)oxy)phenyl)amino)-7-methoxyquinazolin-6-yl)oxy)piperidin-1-yl)prop-2-en-1-one] |
| < 30 nM | 60 to 100 nM | 30 to 60 nM | 60 to 100 nM | 600 to 1000 nM | C=CC(=O)N1CCC(Nc2cc3c(Nc4ccc(Oc5ccnc(C(=O)NC(C)(C)C)c5)cc4F)ncnc3cc2OC)CC1 [Compound 167, 4-(4-((6-((1-acryloylpiperidin-4-yl)amino)-7-methoxyquinazolin-4-yl)amino)-3-fluorophenoxy)-N-(tert-butyl)picolinamide] |
| < 30 nM | < 30 nM | < 30 nM | < 30 nM | 100 to 300 nM | C=CC(=O)N1CCC(Nc2cc3c(Nc4ccc(Oc5ccnc(C(=O)NC)c5)cc4F)ncnc3cc2OC)CC1 [Compound 181, 4-(4-((6-((1-acryloylpiperidin-4-yl)amino)-7-methoxyquinazolin-4-yl)amino)-3-fluorophenoxy)-N-methylpicolinamide] |
| < 30 nM | < 30 nM | < 30 nM | < 30 nM | 100 to 300 nM | C=CC(=O)N1CCC(Nc2cc3c(Nc4ccc(Oc5ccnc(NC6CCOCC6)c5)cc4F)ncnc3cc2OC)CC1 [Compound 185, 1-(4-((4-((2-fluoro-4-((2-((tetrahydro-2H-pyran-4-yl)amino)pyridin-4-yl)oxy)phenyl)amino)-7-methoxyquinazolin-6-yl)amino)piperidin-1-yl)prop-2-en-1-one] |
| 30 to 60 nM | < 30 nM | < 30 nM | < 30 nM | 300 to 600 nM | C=CC(=O)N1CCC(Nc2cc3c(Nc4ccc(Oc5ccnc(-c6nc(C)no6)c5)cc4F)ncnc3cc2OC)CC1 [Compound 191, 1-(4-((4-((2-fluoro-4-((2-(3-methyl-1,2,4-oxadiazol-5-yl)pyridin-4-yl)oxy)phenyl)amino)-7-methoxyquinazolin-6-yl)amino)piperidin-1-yl)prop-2-en-1-one] |
| 100 to 300 nM | < 30 nM | < 30 nM | < 30 nM | ≥ 1000 nM | C=CC(=O)N1CCC(Nc2cc3c(Nc4ccc(Oc5ccnc(-c6nnc(C)o6)c5)cc4F)ncnc3cc2OC)CC1 [Compound 193, 1-(4-((4-((2-fluoro-4-((2-(5-methyl-1,3,4-oxadiazol-2-yl)pyridin-4-yl)oxy)phenyl)amino)-7-methoxyquinazolin-6-yl)amino)piperidin-1-yl)prop-2-en-1-one] |
| 300 to 600 nM | 60 to 100 nM | 30 to 60 nM | < 30 nM | 600 to 1000 nM | C=CC(=O)N1CCC(Nc2cc3c(Nc4ccc(Oc5ccnc(CN6CCOCC6)c5)cc4F)ncnc3cc2OC)CC1 [Compound 210, 1-(4-((4-((2-fluoro-4-((2-(morpholinomethyl)pyridin-4-yl)oxy)phenyl)amino)-7-methoxyquinazolin-6-yl)amino)piperidin-1-yl)prop-2-en-1-one] |
